This note sets out measurements from patent US20070184047A1, “Nitrophenyls and related compounds and thimerosal for the inhibition of immune related cell or tissue destruction” (Canadian Blood Services, priority 2005, published 2007).

For series [1], the system named is FcγR-mediated phagocytosis of anti-D-coated RBCs by monocyte-macrophages (Mφ). Briefly: Monocyte monolayer assay (MMA): inhibition of phagocytosis of anti-D-sensitized RBCs. Type of series: cell-based, human. The conditions noted are these: for inhibition of phagocytosis over the test concentration range: 10^−4 down to 10^−9 mol per L. The text has this:
The test concentration of immunoglobulin (anti-D or IVIg) was chosen after titration of each immunoglobulin on its own to inhibit FcγR and phagocytosis of anti-D-coated RBCs using a monocyte monolayer assay (MMA) as previously described in Rampersad et al., supra and Foo et al., supra. […] The two controls used in these experiments were chemical alone and immunoglobulin alone. For each experiment, the controls and a mixture of chemical and immunoglobulin in phosphate buffered saline (PBS) pH 7.4, were placed in separate tubes (Sarstedt) and gently rotated for 24 hours at room temperature. The solutions were then transferred to respective cellulose dialysis tubing membranes with a molecular size cut off of 12,000 daltons (Sigma-Aldrich) that had been cut to length and washed as per the manufacturer's directions by boiling in a solution containing one mmol/L ethylenediaminetetraacetic acid (EDTA) (BioShop) and 2% sodium bicarbonate (Fisher Scientific) in PBS. Dialysis was performed in large beakers of PBS for 5-7 days at 4° C. with daily changes of PBS.
Preparation of anti-D-sensitized R2R2 red blood cells (RBCs) has been previously described in Rampersad et al., supra and Foo et al., supra. Briefly, RBCs were resuspended in PBS to 5% concentration, mixed with an equal volume of human polyclonal anti-D (Immucor, Tex., Houston, USA) in PBS solution, and then incubated for 1 hour at 37° C. and 5% CO2. After which, the sensitized RBCs were washed four times in PBS and resuspended to 2.5% in PBS. […] The MMA was performed as previously described in Foo et al., supra, without modification.
A phagocytic index was calculated as described in Rampersad et al., supra; Foo et al., supra; and Branch et al., British Journal of Haematology, 1984; 56:19-29, as the unitless number of antibody-sensitized RBCs phagocytosed per 100 Mφ. Residual and phagocytosed RBCs were distinguished by relative differences in refracted light under phase-contrast microscopy. Percent inhibition was calculated as previously described^2 taking the phagocytic control index to be 100. […] Statistical significance of inhibition between treated and untreated Mφ were analysed using Student t-test and Analysis of Variance (ANOVA), and/or, General Linear Model (GLM) Analysis and Student-Newman-Keuls test. A p value of <0.05 was considered to be significant.
As previously described with minor modification, Rampersad et al., Transfusion, 2005; 45:384:93, an aliquot of R2R2 RBCs was removed from storage in Alsever's solution, Walker et al., American Association of Blood Banks, 11th ed., Bethesda, 1993, at 4° C. and washed three times in PBS without calcium or magnesium (Gibco/Invitrogen) at 2000 r.p.m. for 7 minutes (Sorvall RT 6000D centrifuge, Mandel Scientific Company Inc., Guelph, Ontario, Canada). The RBCs were resuspended in PBS to 5 percent concentration, mixed with an equal volume of human anti-D in PBS solution, and then incubated for 1 hour at 37° C. and 5 percent CO2 (Sanyo CO2 incubator), after which the sensitized RBCs were washed four times in PBS at 2000 r.p.m. for 7 minutes and resuspended to 2.5 percent in PBS.
As previously described with slight modification to improve the quality of the Mφ monolayer, Rampersad et al, supra, whole venous blood was drawn from donors into tubes (Vacutainer, ACD solution A, Becton Dickinson Vacutainer Systems, Franklin Lakes, N.J.) and mixed with an equal volume of PBS.

The subject of the next series is PBMCs. Briefly: FACS annexin V-FITC/PI analysis for viable and apoptotic PBMCs. The series is classed as cell-based. The conditions noted are these: for effect on PBMC viability or apoptosis: 10^−4 to 10^−9 mol per L, 1 hour; for necrotic cell counts: PBMCs. From the text:
Fluorescence-activated cell sorting (FACS) analysis (flow cytometry) and a TACS annexin V-fluorescein isothiocyanate (FITC) apoptosis detection kit (R&D Systems, Minneapolis, Minn.) were used to determine if disulfide-containing compounds benzoylmethyl methyl disulfide and phenyl methyl disulfide exert effects on viability or apoptosis of PBMCs. Briefly, PBMCs were isolated from whole blood as previously outlined and treated with culture medium or chemical from 10^−4 to 10^−9 mol per L for 1 hour at 37° C. and 5 percent CO2. They were then washed three times in PBS and collected by centrifugation at 12,000 r.p.m. for 5 to 10 minutes before being incubated in culture medium for 2 hours. After washing the cells once in cold PBS, according to the manufacturer's instructions, cells were then incubated with annexin V-FITC incubation reagent for 15 minutes at room temperature to stain membrane exposed phosphatidylserine, indicating early programmed cell death or apoptosis. Cells were then stained with propidium iodide (PI), specific for nonviable cells, to identify late apoptotic cells. FACS was performed with two-color analysis on a flow cytometer (FACSCalibur E4795, Becton Dickinson, Mississauga, Ontario, Canada) calibrated with fluorescent beads (CaliBRITE, BD Biosciences, San Jose, Calif.) and computer software for data analyses (Cell Quest, BD Biosciences).

Series [2] relates to immune-mediated platelet destruction (anti-platelet antibody). Briefly: Model of immune-mediated platelet destruction, treatment prior to anti-platelet antibody. The conditions noted are these: administered prior to anti-platelet antibody. The series is classed as in vivo, mice. As for the experimental part: Referring to FIG. 5, unlike the model in FIG. 4A-4C, the treatment was administered prior to injecting the mice with the anti-platelet antibody.

Series [3] has the same test system. As to the kind of experiment: Model of immune-mediated platelet destruction, treatment at day 2. The series is classed as in vivo, mice. The conditions noted are these: single dose at day 2 instead of IVIg, anti-platelet antibody continued daily. As for the experimental part:
Referring now to FIGS. 4A through 4C, shown are the results using a model of immune-mediated platelet destruction wherein the anti-platelet antibody is administered on day 0 and daily thereafter. The platelet count fell abruptly after 24 hours (day 1) indicating platelets were destroyed after the antibody was recognized and bound to the platelets. […] In FIGS. 4B and 4C at day 2, instead of IVIg, two mice were administered a single dose of thimerosal or a nitrophenyl compound p-nitrophenyl methyl disulfide (G-B) (FIG. 4C).

Consider `CC(O)c1ccccc1` (stereo not shown) [1-phenylethanol, reference compound], for which the “inhibition of phagocytosis over the test concentration range” value in series [1] is “None of these compounds were able to inhibit phagocytosis”.
Same read-out and setting: the entry for `O=C(CS)c1ccccc1` [benzoylmethyl mercaptan] is “ineffective”.
As for `CSSCC(=O)c1ccccc1` [benzoylmethyl methyl disulfide], the “inhibition of phagocytosis over the test concentration range” value in series [1] was “inhibited phagocytosis in a dose-dependent manner”. In series [1] (10^−4 mol per L), the inhibition of phagocytosis stood at 62%. Also, the “effect on PBMC viability or apoptosis” value in the series on PBMCs is given as “do not significantly affect PBMC viability or apoptosis”.
For `O=[N+]([O-])c1ccccc1` [nitrobenzene, reference compound], the “inhibition of phagocytosis over the test concentration range” value in series [1] is reported as “None of these compounds were able to inhibit phagocytosis”.
The same measure, in the same setting: under `CSCc1ccc([N+](=O)[O-])cc1` [p-nitrobenzyl methyl sulfide] stands “did not inhibit phagocytosis”; under `O=[N+]([O-])c1ccc(O)cc1` [p-nitrophenol, reference compound], “None of these compounds were able to inhibit phagocytosis”.
`CSSc1ccc([N+](=O)[O-])cc1` [p-nitrophenyl methyl disulfide]: the “inhibition of phagocytosis over the test concentration range” value in series [1] was “inhibited macrophage phagocytosis in vitro in a dose-dependent manner”. The values for the inhibition of phagocytosis in series [1] (10^−4 mol per L) and in series [1] (10^−7 mol per L) were 98.6% and 29%, respectively. In addition, in series [2], the “effect on loss of platelets following anti-platelet antibody” value (“effect on loss” for short) is given as “little effect on the subsequent loss of platelets”. For the same molecule, the “platelet count after treatment” value in series [3] is “the platelet count began to rise”.
With `CSSc1ccccc1` [phenyl methyl disulfide], in series [1], the “inhibition of phagocytosis over the test concentration range” value was “inhibition of phagocytosis in a dose-dependent manner”. Also, the inhibition of phagocytosis in series [1] (10^−4 mol per L) stood at 54%. Also, in the series with PBMCs, the “effect on PBMC viability or apoptosis” value is “do not significantly affect PBMC viability or apoptosis”. For the same molecule, the necrotic cell counts with PBMCs (10^−4 mol per L) was found to be 2.36%; with PBMCs (10^−5 mol per L), 1.05%.
In the case of `C[CH2][Hg][S]c1ccccc1C(=O)[O-].[Na+]` [thimerosal], the inhibition of phagocytosis in series [1] (used alone at 10^−3M, undialyzed) stood at 100%; in series [1] (used alone at 10^−5M, undialyzed), 100%. The “inhibition of phagocytosis after dialysis” value in series [1] (used alone at 10^−5M or 10^−3M, after dialysis) was “no longer inhibits phagocytosis after dialysis”. The “effect on loss” value in series [2] is recorded as “little effect on the subsequent loss of platelets”. Further, the “platelet count after treatment” value in series [3] is recorded as “the platelet count began to rise”.
For p-nitrophenylethanol, the “inhibition of phagocytosis over the test concentration range” value in series [1] is reported as “None of these compounds were able to inhibit phagocytosis”. Besides, the “effect on loss” value in series [2] is “zero platelet loss”.
